In brackets after ≈: the same amount, converted by molar mass. Like-named read-outs stand apart in the source and are kept apart here.
Tests used:
[1] = test system: Bacillus megaterium (ATCC™ 14581); assay: MIC, broth microdilution (NCCLS M7-A5); type: cell-based; details: Priestia megaterium, ATCC14581; B. megaterium ATCC 14581; Mueller-Hinton; 35° C., 18 hours; read-out: MIC
Procedure: (§1) Antibacterial activity of Compounds 1 and 2 (Table 4) was measured by determining the minimal inhibitory concentration (MIC) necessary to obtain a complete inhibition of bacteria growth in eight indicator strains, namely Staphylococcus aureus (ATCC™ 6538P), Staphylococcus aureus MRS3 (ATCC™ 700699), Staphylococcus epidermidis (ATCC™ 12228), Bacillus subtilis (ATCC™ 23857), Bacillus megaterium (ATCC™ 14581), Enterococcus faecalis VRE-1 (ATCC™ 29212), Enterococcus faecalis VRE-2 (ATCC™ 51299) and Micrococcus luteus (ATCC™ 9341). Indicator strains preparation and MIC determination were performed according to the National Committee for Clinical Laboratory Standards (NCCLS) guideline M7-A5 Methods for Dilution Antimicrobial Susceptibility Tests for Bacteria That Grow Aerobically; Approved Standard-Fifth Edition. (NCCLS document M7-A5, ISBN 1-56238-394-9; NCCLS, 940 West Valley Road, Suite 1400, Wayne, Pa. 19087-1898 USA), the content of which is incorporated herein by reference.
(§2) Compounds 1 and 2 were prepared as 100× stock solution in DMSO, with concentrations ranging from 3.2 mg/ml to 0.00625 mg/ml (a two-fold dilution series over […]). An aliquot of each 100× stock solution was diluted 50-fold in test medium described below to give a set of ten (10) 2× solutions ranging from 64 to 0.125 μg/mL. 50 μl of each of the ten 2× solutions was aliquoted into the corresponding well of a 12-well row, with the final well reserved for medium alone control. Each test was made in duplicate.
(§3) Vancomycin (Sigma™) used as positive control compounds, was prepared as 2× stock solutions in sterile, double-distilled water (ddH2O) ranging from 64 μg/ml to […] (a two-fold dilution series over 10 points). An aliquot of 50 μl corresponding to each concentration (at 2×) was then transferred to 96-well microplates to obtain a series of eleven two-fold dilutions.
(§4) An isolated colony of each of the eight indicator strains was used to inoculate tubes containing 3 ml of test medium. Mueller-Hinton test medium was used for Staphylococcus aureus (ATCC™ 6538P), Staphylococcus aureus MRS3 (ATCC™ 700699), Staphylococcus epidermidis (ATCC™ 12228), Bacillus subtilis (ATCC™ 23857), Bacillus megaterium (ATCC™ 14581) and Micrococcus luteus (ATCC™ 9341) indicator strains, and BHI (Brain-Heart Infusion broth) test medium was used for Enterococcus faecalis VRE-1 (ATCC™ 29212) and Enterococcus faecalis VRE-2 (ATCC™ 51299) indicator strains. Cells were grown overnight at 28° C. with shaking. Inoculum density for each indicator strain was adjusted to OD600=0.1 in 5 ml 0.85% saline, then further diluted 1/100 in appropriate medium. 50 μl of the final dilution (in test medium) of each indicator strain was added to each well of a 12-well row. This brings the final dilution of the test article or control compound in solution to 1×. The final inoculum is approximately 5×10^5 CFU/ml.
(§5) The indicator strains were incubated with 11 concentrations of each of Compounds 1 and 2, Vancomycin (Sigma™) control compound and one media alone control. For MIC determination, assay plates were incubated at 35° C. for 18 hours.

[2] = test system: Enterococcus faecalis VRE-2 (ATCC™ 51299); assay: MIC, broth microdilution (NCCLS M7-A5); type: cell-based; details: E. faecalis ATCC 51299, BHI, 35° C., 18 hours, read-out: MIC
Procedure: as §1, §2, §3, §4, §5

[3] = test system: Staphylococcus aureus (ATCC™ 6538P); assay: MIC, broth microdilution (NCCLS M7-A5); type: cell-based; details: read-out: MIC
Procedure: as §1, §2, §3, §4, §5

[4] = test system: Staphylococcus aureus (Smith strain, ATCC™ 13709); assay: In vivo efficacy, acute lethal S. aureus infection in mice; details: ICR mice; i.p. one hour post infection; lowest dose tested; 100% protection
Procedure: B. Efficacy: In vivo efficacy studies were performed on ICR mice (supplied by Charles River Laboratories, Wilmington, Mass.) having a bodyweight of 20±2 g. Mice (38) were inoculated i.p. with an LD90-100 dose (1×10^6 CFU/mouse) of Staphylococcus aureus (Smith strain, ATCC™ 13709) suspended in 0.5 mL of BHI containing 5% mucin. Compound 1 at doses 20, 30, 40, 50, 60 and 70 mg/kg (formulated in 20% propylene glycol/water for a total volume of 10 μL/g of weigth) was administered i.p. one hour post infection (5 mice for each concentration). Another group of 5 mice was treated i.v. with a 10 mg/kg dose of Vancomycin. A last group of 3 mice was administered vehicle only. Mortality was recorded for 7 days.

in vitro = type: cell-based; details: sheep; concentration to achieve 50% hemolysis of SRBC; read-out: In vitro Hemolytic activity (EC50)
Procedure: (§6) A. Toxicity: Acute toxicities were determined using CD-1 female mice (supplied by Charles River Laboratories, Wilmington, Mass.) having a bodyweight of 18-25 g, and about 6 weeks of age. Compounds 1 and 2 at doses ranging from 1 to 70 mg/kg (formulated in 20% propylene glycol/water for a total volume of 10 μL/g of weight) were administered intraperitoneal (i.p.) and intravenous (i.v.) to groups of 5 mice (5 mice per concentration, per mode of administration). Two groups of 3 mice were injected with vehicle only. Mice were observed immediately after injection, within 4 hours and once a day for the subsequent days. Acute toxicity studies of Compound 1 in mice indicated no observable effect and high dose tolerability: 70 mg/kg intraperitoneal and 50 mg/kg intravenous (an MTD of 250 mg/kg was also determined by oral administration). […] In vitro Haemolytic activity results are also shown in Table 7, along with the in vivo toxicity and efficacy of Compound 1.

in vivo = details: female, CD-1, mouse
Procedure: as §6

CD-1 female mice = assay: in vivo; details: CD-1, mouse
Procedure: as §6

SRBC = assay: in vitro; type: cell-based; details: at a concentration of 128 μg/ml
Procedure: as §6

[5] = ATCC6538P, S. aureus ATCC 6538P, Mueller-Hinton, 35° C., 18 hours

SMILES | MIC [1] | MIC [2] | MIC [3, 5] | MIC ([3]; Table 6, S. aureus MSSA) | In vivo efficacy: S. aureus (Smith), protective dose [4] | EC50 (in vitro) | MTD (in vivo; ip) | MTD (in vivo; po) | Acute toxicity: dose with no observable effect (high dose tolerability) (CD-1 female mice; ip) | Acute toxicity: dose with no observable effect (high dose tolerability) (CD-1 female mice; iv) | Haemolytic activity (SRBC)
CC(=CC=CC=CC=CC=CC(C)C(OC1OC(C(=O)O)C(O)C(O)C1O)C(C)=CC(C)CCCC=CC(C)CC=CCCCN(C)C(=N)N)C(=O)NC1=C(O)CCC1=O (stereo not shown) [Compound 1, 3,4,5-trihydroxy-6-[1-[11-(2-hydroxy-5-oxocyclopent-1-enylcarbamoyl)-1-methyldodeca-2,4,6,8,10-pentaenyl]-2,4,10-trimethyl-16-(N-methyl-guanidino)-hexadeca-2,8,12-trienyloxy]-tetrahydropyran-2-carboxylic acid] | 1 µg/mL (≈ 1.19 µM) | 16 µg/mL (≈ 19.1 µM) | 2 µg/mL (≈ 2.39 µM) | 2 µg/mL (≈ 2.39 µM) | ≦20 mg/kg | > 128 µg/mL | 70 mg/kg | 250 mg/kg | 70 mg/kg | 50 mg/kg | 
C\C(=C/C=C/C=C/C=C/C=C/C(C)C(OC1OC(C(=O)O)C(O)C(O)C1O)/C(C)=C/C(C)CCC/C=C/C(C)C/C=C/CCCNC(=N)N)C(=O)NC1=C(O)CCC1=O (stereo not shown) [Compound 2, 6-{16-guanidino-1-[11-(2-hydroxy-5-oxocyclopent-1-enylcarbamoyl)-1-methyldodeca-2,4,6,8,10-pentaenyl]-2,4,10-trimethylhexadeca-2,8,12-trienyloxy}-3,4,5-trihydroxy-tetrahydro-pyran-2-carboxylic acid] | 1 µg/mL (≈ 1.22 µM) | 16 µg/mL (≈ 19.4 µM) | 1 µg/mL (≈ 1.22 µM) | 1 µg/mL (≈ 1.22 µM) |  |  |  |  |  | 25 mg/kg | No Haemolytic activity

From patent publication US20050215490A1, “Polyene polyketides and methods of treating bacterial infections” (Ecopia BioSciences, Inc., priority 2003, published 2005)
